In general, Ki refers to the equilibrium dissociation constant of an inhibitor or competing ligand from its target.

The first assay concerns the target T1, Rhesus PDE2A3 (Macaca mulatta, UniProt B3VTJ2).
T1 construct: made in house; host or cells: AD293 cells, transient transfection, pcDNA3.3-TOPO; lysate supernatant used as enzyme
T1 sequence (B3VTJ2 1-941): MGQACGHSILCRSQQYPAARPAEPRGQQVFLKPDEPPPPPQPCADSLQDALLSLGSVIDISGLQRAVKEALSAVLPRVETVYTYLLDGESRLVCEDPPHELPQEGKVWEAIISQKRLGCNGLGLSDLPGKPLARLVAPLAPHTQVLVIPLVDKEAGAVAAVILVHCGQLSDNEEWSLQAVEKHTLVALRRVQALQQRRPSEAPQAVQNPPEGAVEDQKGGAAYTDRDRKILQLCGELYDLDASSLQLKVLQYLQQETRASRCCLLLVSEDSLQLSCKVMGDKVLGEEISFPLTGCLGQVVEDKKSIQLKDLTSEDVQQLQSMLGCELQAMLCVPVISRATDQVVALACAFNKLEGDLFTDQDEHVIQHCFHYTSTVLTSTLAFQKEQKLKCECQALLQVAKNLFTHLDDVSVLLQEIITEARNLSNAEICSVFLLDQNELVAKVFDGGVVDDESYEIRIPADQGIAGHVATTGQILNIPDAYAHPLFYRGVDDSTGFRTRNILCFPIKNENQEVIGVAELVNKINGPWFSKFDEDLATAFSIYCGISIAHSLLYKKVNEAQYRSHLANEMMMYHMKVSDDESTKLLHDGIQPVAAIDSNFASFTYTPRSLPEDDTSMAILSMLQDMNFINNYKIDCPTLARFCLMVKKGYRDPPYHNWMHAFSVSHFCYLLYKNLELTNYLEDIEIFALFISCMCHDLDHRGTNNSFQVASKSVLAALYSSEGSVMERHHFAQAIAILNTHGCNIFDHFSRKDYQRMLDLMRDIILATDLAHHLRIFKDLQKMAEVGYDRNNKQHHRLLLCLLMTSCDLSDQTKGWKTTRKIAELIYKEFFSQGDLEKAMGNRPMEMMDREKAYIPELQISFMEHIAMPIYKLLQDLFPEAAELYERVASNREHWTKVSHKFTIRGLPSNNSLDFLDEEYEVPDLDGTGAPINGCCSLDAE
Put plainly: PDE2 fluorescence polarization (IMAP FP) inhibition assay, rhesus enzyme. Type of assay: biochemical, rhesus macaque. As to conditions: Lab A; read-out: Rhesus PDE2 Ki (nM) Lab A. On the procedure:
The activity of the compounds in accordance with the present invention as PDE2 inhibitors may be readily determined using a fluorescence polarization (FP) methodology (Huang, W., et al., J. Biomol Screen, 2002, 7: 215).
In a typical experiment the PDE2 inhibitory activity of the compounds of the present invention was determined in accordance with the following experimental method. Rhesus PDE2A3 was amplified from rhesus macaque brain cDNA (Biochain Institute, Hayward, Calif.) using primers based on human PDE2A sequence (accession NM_002599.3) where the forward primer containing a Kozak consensus was 5′-[…]-3′ and the reverse primer was 5′-[…]-3′. Amplification with Easy-A High-Fidelity PCR cloning enzyme (Stratagene, La Jolla, Calif.) was 95° C. for 2 minutes followed by thirty three cycles of 95° C. for 40 seconds, 52° C. for 30 seconds, and 72° C. for 2 minutes 48 seconds. Final extension was 72° C. for 7 minutes. The PCR product was TA cloned into pcDNA3.3-TOPO (Invitrogen, Carlsbad, Calif.) according to standard protocol. A consensus sequence was developed from multiple clones and then deposited into GenBank (EU812167). AD293 cells (Stratagene, La Jolla, Calif.) with 70-80% confluency were transiently transfected with rhesus PDE2A3/pcDNA3.3-TOPO using Lipofectamine 2000 according to manufacturer specifications (Invitrogen, Carlsbad, Calif.). Cells were harvested 48 hours post-transfection and lysed by sonication (setting 3, 10×5 sec pulses) in a buffer containing 20 mM HEPES pH 7.4, 1 mM EDTA and Complete Protease Inhibitor Cocktail Tablets (Roche, Indianapolis, Ind.). Lysate was collected by centrifugation at 75,000×g for 20 minutes at 4° C. and supernatant utilized for evaluation of PDE2 activity. The fluorescence polarization assay for cyclic nucleotide phosphodiesterases was performed using an IMAP® FP kit supplied by Molecular Devices, Sunnyvale, Calif. (product # R8139). […] Assays were performed at room temperature in 384-well microtiter plates with an incubation volume of 20.2 μL. Solutions of test compounds were prepared in DMSO and serially diluted with DMSO to yield 8 μL of each of 10 solutions differing by 3-fold in concentration, at 32 serial dilutions per plate. […] 0% of inhibition is determined by using DMSO (1% final concentrations).
A Labcyte Echo 555 (Labcyte, Sunnyvale, Calif.) is used to dispense 200 nL from each well of the titration plate to the 384 well assay plate. Ten microliters of a solution of enzyme (1/2000 final dilution from aliquots; sufficient to produce 20% substrate conversion) was added to the assay plate. Next 10 uL of a separate solution of the substrate FAM-labeled cAMP (50 nM final concentration product # R7506 from Molecular Devices) and the activator cGMP (1 uM final concentration), prepared in the assay buffer (10 mM Tris HCl, pH 7.2, 10 mM MgCl2, 0.05% NaN3 0.01% Tween-20, and 1 mM DTT) was added to the assay plate and shaken to mix. The reaction is allowed to proceed at room temperature for 60 minutes. A binding solution is then made from the kit components, comprised of 80% Solution A, 20% Solution B and binding reagent at a volume of 1/600 the total binding solution. The enzymatic reaction is stopped by addition of 60 μl, of the binding solution to each well of the assay plates and the plates are sealed and shaken for 30 seconds. The plate was incubated at room temperature for at least one hour prior to determining the fluorescence polarization (FP). The parallel and perpendicular fluorescence of each well of the plate was measured using a Tecan Genios Pro plate reader (Tecan, Switzerland) or Perkin Elmer EnVision™ plate reader (Waltham, Mass.). Fluorescence polarization (mP) was calculated from the parallel (S) and perpendicular (P) fluorescence of each sample well and the analogous values for the median control well, containing only substrate (So and Po), using the following equation: Polarization (mP)=1000*(S/So−P/Po)/(S/So+P/Po).
Consider `Cc1nc(-c2cnn(C(C)c3ccc(C(F)(F)F)cc3Cl)c2)cc(=O)[nH]1` (single isomer, unassigned) [Example 84, (S)- or (R)-6-(1-(1-(2-chloro-4-(trifluoromethyl)phenyl)ethyl)-1H-pyrazol-4-yl)-2-methylpyrimidin-4(3H)-one], for which the Ki came to 179 nM.

Turning to `CCc1nc(-c2cnn(C(C)c3ccc(C(F)(F)F)cc3F)c2)cc(=O)[nH]1` (single isomer, unassigned) [Example 86, (S)- or (R)-2-ethyl-6-(1-(1-(2-fluoro-4-(trifluoromethyl)phenyl)ethyl)-1H-pyrazol-4-yl)pyrimidin-4(3H)-one], the Ki is 146 nM.

As to `Cc1nc(-c2cnn(C(C)c3ccc(OC(F)F)cc3F)c2)cc(=O)[nH]1` (single isomer, unassigned) [Example 87, (R)- or (S)-6-(1-(1-(4-(difluoromethoxy)-2-fluorophenyl)ethyl)-1H-pyrazol-4-yl)-2-methylpyrimidin-4(3H)-one], the Ki was 480 nM.

Turning to `Cc1nc(-c2cnn(C(C)c3ccc(OC(F)F)cc3F)c2)cc(=O)[nH]1` (single isomer, unassigned) [Example 88, (S)- or (R)-6-(1-(1-(4-(difluoromethoxy)-2-fluorophenyl)ethyl)-1H-pyrazol-4-yl)-2-methylpyrimidin-4(3H)-one], the Ki came to 162 nM.

As for `Cc1nc(-c2cnn(C(C)c3ccc(OC(F)F)cc3C)c2)cc(=O)[nH]1` (single isomer, unassigned) [Example 89, (R)- or (S)-6-(1-(1-(4-(difluoromethoxy)-2-methylphenyl)ethyl)-1H-pyrazol-4-yl)-2-methylpyrimidin-4(3H)-one], the Ki amounted to 1840 nM.

As for `Cc1nc(-c2cnn(C(C)c3ccc(OC(F)F)cc3C)c2)cc(=O)[nH]1` (single isomer, unassigned) [Example 90, (S)- or (R)-6-(1-(1-(4-(difluoromethoxy)-2-methylphenyl)ethyl)-1H-pyrazol-4-yl)-2-methylpyrimidin-4(3H)-one], the Ki was determined as 150 nM.

Take `Cc1nc(-c2cnn(C(C)c3ccc(C4CC4)cc3F)c2)cc(=O)[nH]1` (single isomer, unassigned) [Example 92, (S)- or (R)-6-(1-(1-(4-cyclopropyl-2-fluorophenyl)ethyl)-1H-pyrazol-4-yl)-2-methylpyrimidin-4(3H)-one]: the Ki came out at 212 nM.

As to `Cc1nc(-c2cnn(C(C)c3ccc(C4CC4)cc3C)c2)cc(=O)[nH]1` (single isomer, unassigned) [Example 93, (R)- or (S)-6-(1-(1-(4-cyclopropyl-2-methylphenyl)ethyl)-1H-pyrazol-4-yl)-2-methylpyrimidin-4(3H)-one], the Ki amounted to 706 nM.

Take `Cc1nc(-c2cnn(C(C)c3ccc(CC(F)(F)F)cc3F)c2)cc(=O)[nH]1` (single isomer, unassigned) [Example 95, (R)- or (S)-6-(1-(1-(2-fluoro-4-(2,2,2-trifluoroethyl)phenyl)ethyl)-1H-pyrazol-4-yl)-2-methylpyrimidin-4(3H)-one]: the Ki amounted to 1140 nM.

For the compound `Cc1nc(-c2cnn(C(C)c3ccc(CC(F)(F)F)cc3F)c2)cc(=O)[nH]1` (single isomer, unassigned) [Example 96, (S)- or (R)-6-(1-(1-(2-fluoro-4-(2,2,2-trifluoroethyl)phenyl)ethyl)-1H-pyrazol-4-yl)-2-methylpyrimidin-4(3H)-one], the Ki is 1260 nM.

As to `COCc1ccc(C(C)n2cc(-c3cc(=O)[nH]c(C)n3)cn2)c(F)c1` (single isomer, unassigned) [Example 97, (R)- or (S)-6-(1-(1-(2-fluoro-4-(methoxymethyl)phenyl)ethyl)-1H-pyrazol-4-yl)-2-methylpyrimidin-4(3H)-one], the Ki was determined as 464 nM.

The same assay, now with this note: Lab B; read-out: Rhesus PDE2 Ki (nM) Lab B.
On to `COc1cc(C(F)(F)F)ccc1[C@@H](C)n1cc(-c2cc(=O)[nH]c(C)n2)cn1` (single isomer, unassigned) [Example 1], for which the Ki was found to be 301 nM.

In the case of `Cc1nc(-c2cc([C@@H](C)c3ccc(C(F)(F)F)cc3)n(C)n2)cc(=O)[nH]1` (single isomer, unassigned) [Example 25], the inhibition constant Ki is 3680 nM.

For `Cc1nc(-c2cc([C@@H](C)c3ccc(C(F)(F)F)cc3)n(C)n2)cc(=O)[nH]1` (single isomer, unassigned) [Example 26], the Ki worked out at 1140 nM.

`Cc1nc(-n2cc(C(C)c3ccc(C(F)(F)F)c(F)c3)cn2)cc(=O)[nH]1` (single isomer, unassigned) [Example 50, (R)- or (S)-6-(4-(1-(3-fluoro-4-(trifluoromethyl)phenyl)ethyl)-1H-pyrazol-1-yl)-2-methylpyrimidin-4(3H)-one]: the Ki was more than 1000 nM.

With `Cc1nc(-n2cc(C(C)c3ccc(C(F)(F)F)c(F)c3)cn2)cc(=O)[nH]1` (single isomer, unassigned) [Example 51, (S)- or (R)-6-(4-(1-(3-fluoro-4-(trifluoromethyl)phenyl)ethyl)-1H-pyrazol-1-yl)-2-methylpyrimidin-4(3H)-one], the Ki was more than 1000 nM.

Consider `Cc1nc(-c2cnn(C(C)c3ccc(C(F)(F)F)cc3C)c2)cc(=O)[nH]1` (single isomer, unassigned) [Example 56, (R)- or (S)-2-methyl-6-(1-(1-(2-methyl-4-(trifluoromethyl)phenyl)ethyl)-1H-pyrazol-4-yl)pyrimidin-4(3H)-one], for which the Ki was found to be 314 nM.

Regarding `Cc1nc(-c2cnn(C(C)c3ccc(OC(F)(F)F)cc3F)c2)cc(=O)[nH]1` (single isomer, unassigned) [Example 58, (R)- or (S)-6-(1-(1-(2-fluoro-4-(trifluoromethoxy)phenyl)ethyl)-1H-pyrazol-4-yl)-2-methylpyrimidin-4(3H)-one], the Ki was determined as 256 nM.

For the compound `Cc1nc(-c2cnn(C(C)c3ccc(OC(F)(F)F)cc3F)c2)cc(=O)[nH]1` (single isomer, unassigned) [Example 59, (S)- or (R)-6-(1-(1-(2-fluoro-4-(trifluoromethoxy)phenyl)ethyl)-1H-pyrazol-4-yl)-2-methylpyrimidin-4(3H)-one], the Ki was determined as 469 nM.

Values taken from patent US10287269B2, “Pyrazolyl pyrimidinone compounds as PDE2 inhibitors” (Merck Sharp & Dohme Corp., priority 2015, dated 2019).
